Data from PubChem BioAssay AID2060497 (Molecular Pharmacology Branch, DTP, NCI, 2025).
“And” between values parts separate entries of the source, which are not always exact repeats. Identical values can stand only once.

Test system: 317291-083-R-J1-PDC complex spheroids, viability
Test: Anticancer human tumor 317291-083-R-J1-PDC patient-derived soft tissue sarcoma cell line growth inhibition [GQUAD]
Conditions: for viability, T/C: stronger effect = lower value
Description: DNA G-quadruplex Stabilizer Agents in Combinations in Complex Spheroids
A high-throughput screen of multi-cell type tumor spheroids was designed to identify active combinations of DNA G-quadruplex stabilizer agents and targeted small molecules. Complex spheroids include a stromal component modeled by human endothelial cells (HUVEC) and fibroblasts modeled by human mesenchymal stem cells (MSCs). The concentration ranges selected for each drug and investigational agent were based upon clinically achievable concentrations if the clinical Cmax of the agent was known.
Compounds. The drugs and investigational agents: pidnarulex (CX-5461; NSC782164), APTO-253 (NSC789042), BRACO-19 (NSC847499), peposertib (NSC802822), ceralasertib (NSC780249), elimusertib (NSC800525), camonsertib (NSC841442), AZD-1390 (NSC803789), olaparib (NSC753686), talazoparib (NSC767125), ART-558 (NSC835418), sotorasib (NSC818433), MRTX-1133 (NSC836407), SN-38 (NSC673596), topotecan (NSC609699), etoposide (NSC141540), doxorubicin (NSC123127), gemcitabine (NSC613327), 5-fluorouracil (NSC19893), paclitaxel (NSC125973), vemurafenib (NSC761431), panobinostat (NSC761190), R-306465 (JNJ-16241199; NSC773264), adavosertib (NSC754352), TP-3654 (NSC805149), carboplatin (NSC241240), KSQ-4279 (NSC840948), and staurosporine (NSC755774) were obtained from the National Cancer Institute (NCI) Developmental Therapeutics Program Chemical Repository (34). The FDA-approved anticancer drug set is available from the NCI Developmental Therapeutics Program. […] The stock solutions were prepared in dimethyl sulfoxide (DMSO, Sigma-Aldrich, St. Louis, MO, cat. D2650) at 800-fold the tested concentration and stored at -70 degrees C prior to their use. All drugs and investigational agents were tested over a range starting from a high concentration at or near the clinical Cmax and decreasing in half-log increments. If the clinical Cmax for an agent had not been determined, the highest concentration tested was 10 microM.
2.3 Cell Culture. All cells were maintained in an incubator at 37 degrees C and 5% CO2 with 95% humidity. The PDC lines were cultured according to standard operating procedures established by the NCI PDMR. All PDCs were thawed and cultured in Matrigel-coated flasks prepared with a working solution of 1X Ham's F-12 nutrient mix, without supplementation (Invitrogen, cat. 11765054), 100 U/mL penicillin-streptomycin (Invitrogen, cat. 15140122), and 2.5% Matrigel (Corning Inc., cat. 354248) for the first three passages. The 857933-349-R-J2-PDC line was cultured in 6C/Colon 1B media, which includes advanced DMEM/F-12 (Thermo Fisher Scientific, cat. 12634028), 10 mM HEPES (Thermo Fisher Scientific, cat. 15630080), 1X GlutaMAX supplement (Thermo Fisher Scientific, cat. 35050061), 0.1 mg/mL primocin (InvivoGen, cat. ant-pm-2), 10% defined fetal bovine serum, heat inactivated (HyClone Laboratories Inc., cat. SH30070.03HI), 50% L-WRN conditioned media (ATCC, cat. CRL-3276), 1.25 mM N-Acetyl-L-cysteine (Sigma-Aldrich, cat. A9165), 10 mM nicotinamide (Sigma-Aldrich, cat. N0636), 1X B-27 supplement (Thermo Fisher Scientific, cat. 17504044), 1X N-2 supplement (Thermo Fisher Scientific, cat. 17502048), 10 microM Y-27632 dihydrochloride (Tocris Bioscience, cat. 1254), and 50 ng/mL human EGF recombinant protein (Thermo Fisher Scientific, cat. PHG0311). The 485176-168-R4-J1-PDC line was cultured in Panc media, which includes all 6C/Colon 1B media components plus 100 ng/mL human FGF-10 (Thermo Fisher Scientific, cat. 100-26), 500 nM SB-431542 (Selleckchem, cat. S1067), and gastrin (Tocris, cat. 3006).
[…]
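Further: spheroids exposed to compounds for one week before readout.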
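Wherever viability, T/C is given: percent viability relative to DMSO vehicle wells taken as 100%.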

SMILES: CCc1c2c(nc3ccc(O)cc13)-c1cc3c(c(=O)n1C2)COC(=O)[C@]3(O)CC + CN(C)c1ccc(Nc2c3ccc(NC(=O)CCN4CCCC4)cc3nc3cc(NC(=O)CCN4CCCC4)ccc23)cc1
- IC50 (curve of first compound, second compound 0.0316 µM): 1.31 nM
- IC50 (curve of first compound, second compound 0.1 µM): 1.65 nM
- IC50 (curve of first compound, second compound 0.316 µM): < 0.999 nM
- IC50 (curve of first compound, second compound 1 µM): < 0.999 nM
- IC50 (curve of first compound, second compound 3.16 µM): < 0.999 nM
- IC50 (curve of first compound, second compound 10 µM): < 0.999 nM
- viability, T/C (second compound 0.0316 µM, first compound 0.000999 µM): 58%
- viability, T/C (second compound 0.0316 µM, first compound 0.00316 µM): 24.2%
- viability, T/C (second compound 0.0316 µM, first compound 0.00999 µM): 15.7%
- viability, T/C (second compound 0.0316 µM, first compound 0.0316 µM): 10.1%
- viability, T/C (second compound 0.0316 µM, first compound 0.0999 µM): 7.96%
- viability, T/C (second compound 0.0316 µM, first compound 0.316 µM): 5.2%
- viability, T/C (second compound 0.1 µM, first compound 0.000999 µM): 65.8%
- viability, T/C (second compound 0.1 µM, first compound 0.00316 µM): 28.6%
- viability, T/C (second compound 0.1 µM, first compound 0.00999 µM): 17.5%
- viability, T/C (second compound 0.1 µM, first compound 0.0316 µM): 10.9%
- viability, T/C (second compound 0.1 µM, first compound 0.0999 µM): 9.19%
- viability, T/C (second compound 0.1 µM, first compound 0.316 µM): 5.38%
- viability, T/C (second compound 0.316 µM, first compound 0.000999 µM): 48.7%
- viability, T/C (second compound 0.316 µM, first compound 0.00316 µM): 24.2%
- viability, T/C (second compound 0.316 µM, first compound 0.00999 µM): 15.5%
- viability, T/C (second compound 0.316 µM, first compound 0.0316 µM): 13.7%
- viability, T/C (second compound 0.316 µM, first compound 0.0999 µM): 8.7%
- viability, T/C (second compound 0.316 µM, first compound 0.316 µM): 5.23%
- viability, T/C (second compound 1 µM, first compound 0.000999 µM): 28.4%
- viability, T/C (second compound 1 µM, first compound 0.00316 µM): 15.4%
- viability, T/C (second compound 1 µM, first compound 0.00999 µM): 10.4%
- viability, T/C (second compound 1 µM, first compound 0.0316 µM): 5.97%
- viability, T/C (second compound 1 µM, first compound 0.0999 µM): 7.46%
- viability, T/C (second compound 1 µM, first compound 0.316 µM): 3.88%
- viability, T/C (second compound 3.16 µM, first compound 0.000999 µM): 20.7%
- viability, T/C (second compound 3.16 µM, first compound 0.00316 µM): 9.56%
- viability, T/C (second compound 3.16 µM, first compound 0.00999 µM): 7.45%
- viability, T/C (second compound 3.16 µM, first compound 0.0316 µM): 4.96%
- viability, T/C (second compound 3.16 µM, first compound 0.0999 µM): 4.76%
- viability, T/C (second compound 3.16 µM, first compound 0.316 µM): 2.38%
- viability, T/C (second compound 10 µM, first compound 0.000999 µM): 8.21%
- viability, T/C (second compound 10 µM, first compound 0.00316 µM): 7.57%
- viability, T/C (second compound 10 µM, first compound 0.00999 µM): 4.2%
- viability, T/C (second compound 10 µM, first compound 0.0316 µM): 2.29%
- viability, T/C (second compound 10 µM, first compound 0.0999 µM): 2.45%
- viability, T/C (second compound 10 µM, first compound 0.316 µM): 2.41%

SMILES: Cc1cccc(N(C)C(=O)C2C(O)CCN2c2nc(C)cc(C(F)(F)F)c2C#N)c1 (stereo unspecified)
- viability, T/C (compound 0.0316 µM): 98.9% and 109% and 103%
- viability, T/C (compound 0.1 µM): 92.7% and 102% and 96.2%
- viability, T/C (compound 0.316 µM): 91.3% and 123% and 98.8%
- viability, T/C (compound 1 µM): 106% and 90.7% and 99.7%
- viability, T/C (compound 3.16 µM): 105% and 86.5% and 93.1%
- viability, T/C (compound 10 µM): 81.7% and 77.5% and 81.6%
- IC50 (curve of compound): > 10000 nM

SMILES: COc1ccc([C@@H](O)c2cc(-c3ncnc4cc(N5CCOCC5)ccc34)c(F)cc2Cl)nn1
- viability, T/C (compound 0.0316 µM): 95.9% and 104% and 114%
- viability, T/C (compound 0.1 µM): 97.8% and 87.1% and 92.8%
- viability, T/C (compound 0.316 µM): 103% (2×) and 99.2%
- viability, T/C (compound 1 µM): 72.4% and 93.8% and 95%
- viability, T/C (compound 3.16 µM): 74.5% and 61.3% and 76.2%
- viability, T/C (compound 10 µM): 42.8% and 34.4% and 49.6%
- IC50 (curve of compound): 7570 nM and 5130 nM and > 10000 nM
